The test system of one data set is ARPE19 cells. Particulars: at nanomolar concentrations, glucocorticoid-receptor mediated; cited from earlier work.
Data set [1] in a line: In vitro transscleral transport of budesonide/budesonide pro-drugs. The data set is classed as in vitro ADME, bovine. Particulars: sclera to RPE direction (A to B); 6 h; 37° C. An excerpt:
Freshly excised bovine eyes were used in all studies. […] Equatorial region of the remaining sclera-choroid-[…]) was used as is for SCRPE transport studies. […] Isotonic assay buffer (pH 7.4) with the following composition was used during the entire tissue isolation procedure and transport study: […] Two hundred microliters of sample was collected from the receiver side at specific time intervals and replenished with fresh buffer. The drug/pro-drug content in the receiver and donor samples was analyzed using an LC-MS/MS method.

Data set [2] in a line: Aqueous solubility (Solaq) listed in physicochemical property tables. The conditions noted are these: pH 7.4, 25° C.
The nature of data set [3]: In vitro transport across bovine sclera-choroid-RPE (celecoxib series). An excerpt: (§1) Freshly excised bovine eyes procured from a local slaughter house were used for all in vitro transport studies. Fatty or adherent tissue all around the eye is removed first. Cornea and conjunctiva were then removed. For isolation of sclera and choroid-RPE (CRPE), the anterior segment of the eye was removed with a circumferential cut below the limbus. The eye was cut into two halves along the geometric axis, a line joining the anterior pole (corneal center) and the posterior pole (center of the scleral curve), and the vitreous was removed. Neural retina was removed by exposing the eyecup to isotonic assay buffer at pH 7.4. Equatorial region of the remaining sclera-choroid-RPE (SCRPE) was used as is for SCRPE transport studies. All transport studies for celecoxib were performed in presence of 5% HP-β-CD. […] Drug solutions were prepared in the following manner: Celecoxib (100 μg/ml) in presence of 5% HP-β-CD was made after triturating celecoxib with HP-β-CD in a pestle-mortar followed by addition of assay buffer. The mixture was stirred for 24 h. Before use, the clear solution was filtered through 0.2 μ filter. […] All transport experiments were performed for 6 h at 37° C. Samples were collected at regular time intervals from the receiver side with replacement with fresh assay buffer (pH 7.4). Transport studies with all solutes were performed in A to B direction meaning outward to inward (eg. sclera towards choroid-RPE) movement of the solute was measured. […] Samples from all the transport studies were analyzed on LC-MS/MS.

Data set [4] is described as follows: In vitro transport across bovine cornea.
Source text: as §1

The next data set concerns retinal leukostasis. The conditions noted are these: diabetic rats; eye drops twice daily for 60 days; C-SA 0.2% w/v, C-SA-T 1.0% w/v.
For data set [5], the system named is blood retinal barrier leakage. Particulars: diabetic rats; eye drops twice daily for 60 days; C-SA 0.2% w/v, C-SA-T 1.0% w/v.
Method: After overnight fasting for 12-16 h, an intraperitoneal injection of 30 mg/ml solution of streptozotocin in 10 mM citrate buffer (pH 4.5) was administered (60 mg/kg body weight) to induce diabetes. After 3-4 h of streptozotocin injection, animals were put on regular diet and 24 h after streptozotocin injection, blood sample (5-10 μl) was collected via tail vein. The blood glucose levels in the animals were determined with a glucose monitor (One Touch; Life Scan Inc., Milpitas, Calif.). Animals with blood glucose levels greater than 250 mg/dL were considered diabetic. The animals were divided into four groups. […] Treatment was started immediately after diabetes induction. […]
Retinal FITC-Dextran Leakage: BN rats from each group were used for the assessment of FITC-dextran leakage. […] The relative FITC-dextran fluorescence units in 1 ml of supernatant were measured using a spectrofluorometer set at an excitation wavelength of 483 nm and an emission wavelength of 538 nm. Fluorescence of blank PBS was also
measured for subtraction from each sample reading. Final concentration of FITC-dextran was expressed as μg/g tissue. […] 20 μ (˜20 mg) of plasma was diluted to 1 ml (50 times dilution) with PBS for quantification under the linear range of the standard samples. […] The amount of FITC-dextran leakage in to the ocular tissues was calculated using the following equation, after correcting for dilutions.
The nature of data set [6]: In vitro transport across bovine conjunctiva. From the text:
Freshly excised bovine eyes procured from a local slaughter house were used for all in vitro transport studies. Fatty or adherent tissue all around the eye is removed first. Cornea and conjunctiva were then removed. For isolation of sclera and choroid-RPE (CRPE), the anterior segment of the eye was removed with a circumferential cut below the limbus. The eye was cut into two halves along the geometric axis, a line joining the anterior pole (corneal center) and the posterior pole (center of the scleral curve), and the vitreous was removed. Neural retina was removed by exposing the eyecup to isotonic assay buffer at pH 7.4. Equatorial region of the remaining sclera-choroid-RPE (SCRPE) was used as is for SCRPE transport studies. All transport studies for celecoxib were performed in presence of 5% HP-β-CD. […] Drug solutions were prepared in the following manner: Celecoxib (100 μg/ml) in presence of 5% HP-β-CD was made after triturating celecoxib with HP-β-CD in a pestle-mortar followed by addition of assay buffer. The mixture was stirred for 24 h. Before use, the clear solution was filtered through 0.2 μ filter. […] Transport studies with all solutes were performed in A to B direction meaning outward to inward (eg. sclera towards choroid-RPE) movement of the solute was measured. […] Samples from all the transport studies were analyzed on LC-MS/MS.

For data set [7] the following is noted: for binding/association constant (K, Ka) with melanin: 1 mg/ml melanin suspension in PBS (pH 7.4), 37° C., celecoxib 2 μg/ml, pro-drugs 250 μg/ml.
The subject of data set [8] is blood retinal barrier leakage. Particulars: diabetic rats; eye drops twice daily for 60 days; C-SA 0.2% w/v, C-SA-T 1.0% w/v. As to the method:
The animals were divided into four groups.
Plasma samples were stored at −80° C.
The source holds these as a separate data set.

For data set [9] the following is noted: 10 μl eye drop, 2 mg/ml; 1 h.
Method: At the end of 1 h, the animals were euthanized and the eyes were enucleated. Periocular tissue and plasma samples were collected.
Sample processing: Acetonitrile precipitation method was used for drug extraction from the tissues. Briefly, eyes from each eye drop study were dissected for tissue isolation. Tissues were homogenized in 250 μl water (pH 7.4 adjusted with 5 mM ammonium acetate) containing indoprofen as internal standard at a concentration of 500 ng/ml (1000 ng/ml stock was made). Similar volume of acetonitrile was added and mixed well by vortexing for 30 minutes. Samples were centrifuged at 15,000 rpm for 30 minutes. Supernatant was collected for LC-MS/MS analysis.
Total run time was 5.5 min.
Data set [10] can be described thus: In vivo delivery of bevacizumab in rats, ocular fluorophotometry after intravitreal injection. More on the design: species or system rat. Particulars: day 15. As to the method: Rats were anesthetized by intraperitoneal injection of ketamine (35 mg/kg)/xylazine (5 mg/kg) and once the rats were under anesthesia, betadine solution was applied on the eye surface, and intravitreal injections were made using a 30-G needle. […] Baseline fluorescence values of eyes were monitored before injecting the formulations. At each time point, three fluorometric scans were taken and the mean value was used.

Data set [11] can be described thus: Ex vivo transscleral delivery after posterior subconjunctival injection in euthanized rats. More on the design: species or system Brown Norway (BN) rats. The procedure:
All animals were handled according to the ARVO statement for the use of Animals in Ophthalmic and Vision Research. […] Drug suspensions were shaken before each posterior subconjunctival injection. Rats were divided into two groups. […] Twenty-five microliters of budesonide suspension was injected using a 30 G needle in the posterior subconjunctival space of one eye of each animal and the other eye was not treated. At the end of 1 h, eyes were enucleated and immediately frozen in dry ice and isopentane bath. All samples were stored at −80 ° C. until LCMS/MS analysis. […] At the end of 1 h, the eyes were enucleated and frozen in a similar manner as above until analysis. Periocular tissue samples were also collected from both the groups at the end of the study. Different ocular tissues including sclera, choroid-RPE, retina, and vitreous were isolated and analyzed for drug levels.

Data set [12] is described as follows: Pharmacokinetic model of budesonide succinate transport. Set-up: species or system bovine. Particulars: PK model, A to B in presence of inhibitor (FIG. 4A). An excerpt:
Circles on left side (5 BSA; 6 B) represent the donor chamber whereas circles on right side (7 BSA; 8 B) represent the receiver chamber for BSA transport in A to B direction. 6 B and 8 B were included and represent budesonide formed/transported during the course of transport study. A separate compartment was included to account for the pro-drug/parent drug loss due to tissue absorption. K5>0 represents rate constant for drug loss into the tissue, K5>6 and K7>8 represent rate constants for pro-drug conversion into parent drug on donor and receiver side respectively. […] K5>7 Act represent active transport rate constant and contribution (0.5%) of active diffusion in BSA transport.
The model was developed in such a way that it accounted for transport of pro-drug from the donor to the receiver side, transport of parent drug formed in the donor chamber to the receiver side over the period of transport study, loss of pro-drug/drug into the tissues and any backward transport from the receiver to the donor side. The transport rate constants for parent drug and pro-drug were calculated from the cumulative percentage transport values. Rate constant for conversion of pro-drug to the parent drug was calculated from the percentage of the pro-drug and parent drug formed. Model was run with the dose amounts observed in the donor and receiver sides after 6 h transport studies. […]

[13] abbreviates: end of 6 h, 37° C., 100 μg/ml, celecoxib in 5% HP-β-CD.
Where [14] appears, read: Group 2, 25 μl of 1 mg/ml suspension, posterior subconjunctival, 1 h.

The values that follow come from patent publication US20170151266A1, “METHODS AND COMPOSITIONS FOR ENHANCED DRUG DELIVERY TO THE EYE AND EXTENDED DELIVERY FORMULATIONS” (THE REGENTS OF THE UNIVERSITY OF COLORADO, A BODY, priority 2011, published 2017).

Where “and” joins values, the source holds several entries; their conditions need not be identical. Identical values can stand only once.

Method for retinal leukostasis: After overnight fasting for 12-16 h, an intraperitoneal injection of 30 mg/ml solution of streptozotocin in 10 mM citrate buffer (pH 4.5) was administered (60 mg/kg body weight) to induce diabetes. After 3-4 h of streptozotocin injection, animals were put on regular diet and 24 h after streptozotocin injection, blood sample (5-10 μl) was collected via tail vein. The blood glucose levels in the animals were determined with a glucose monitor (One Touch; Life Scan Inc., Milpitas, Calif.). Animals with blood glucose levels greater than 250 mg/dL were considered diabetic. The animals were divided into four groups. […] Treatment was started immediately after diabetes induction. Both eyes were dosed twice daily for 60 days in group 2, 3 and 4 with their respective treatment. Animals in groups 2-4 were sacrificed at the end of 2 months. Normal animals in group 1 were sacrificed immediately after acclimatization in the animal facility. For each of the three assays, namely, FITC-Dextran leakage, vitreous-to-plasma protein ratio, and leukostasis, we used 4 animals from each of the four groups mentioned above.
BN rats from each group were used for the assessment of adherent leukocytes. At 1 hour after last dose on day 61, rats were sacrificed for ex-vivo retinal leukostasis assay. First, the animals were anesthetized with ketamine (80 mg/kg) and xylazine (12 mg/kg) administered intraperitoneally. […]

As for `CCCC1O[C@@H]2C[C@H]3[C@@H]4CCC5=CC(=O)C=C[C@]5(C)[C@H]4[C@@H](O)C[C@]3(C)[C@]2(C(=O)CO)O1` (stereo partly drawn) [Budesonide], the “VEGF secretion and mRNA expression” value in the data set on ARPE19 cells is reported as “capable of reducing”. Further, the cumulative percentage transport in data set [1] is 0.2%. The Solaq result in data set [2] (Table 1) was “Budesonide (0.02) mg/ml”.
`Cc1ccc(-c2cc(C(F)(F)F)nn2-c2ccc(S(=O)(=O)NC(=O)CCC(=O)NCCS(=O)(=O)O)cc2)cc1` [C-SA-T, celecoxib succinamidic acid taurine]: in [3], the “Transport across bovine sclera-choroid-RPE, times higher than celecoxib” value is recorded as about 20 times and the “reduction in transport across SCRPE with taurine as an inhibitor” value is reported as over 50%. Besides, in data set [4], the “Transport across bovine cornea, times higher than celecoxib” value was about 25 times and the “reduction in transport across cornea with taurine as an inhibitor” value is over 50%. Further, in the data set with retinal leukostasis, the “Mean retinal leukocyte count” value was found to be 47±10. In addition, the “retinal FITC-dextran leakage (mean± s.d.)” value in [5] amounted to 23.64 ± 4.20 µL/g/min. Moreover, the “Transport across bovine conjunctiva, times higher than celecoxib” value in data set [6] was about 4 times. In addition, the “binding/association constant (K, Ka) with melanin” value (“binding/association constant” below) in [7] is 7.39×10^3 M^−1 and 7.93 E3 M^−1. Also, the “melanin binding, fold lower than that of celecoxib” value in [7] (ITC) is on record as about 130 fold. Moreover, the “average vitreous-to-plasma protein ratio” value in [8] was 0.28±0.06.
On to `Cc1ccc(-c2cc(C(F)(F)F)nn2-c2ccc(S(=O)(=O)NC(=O)CCC(=O)O)cc2)cc1` [C-SA, Celecoxib succinamidic acid], for which the “Mean retinal leukocyte count” value in the data set with retinal leukostasis worked out at 95±12. In addition, in data set [5], the “retinal FITC-dextran leakage (mean± s.d.)” value was 93.66 ± 37.08 µL/g/min. In addition, the “binding/association constant” value in data set [7] was 8.89×10^3 M^−1 and 8.89 E3 M^−1.
In the case of `Cc1ccc(-c2cc(C(F)(F)F)nn2-c2ccc(S(N)(=O)=O)cc2)cc1` [Celecoxib, reference compound], in data set [3] (setting [13]), the “Transport across bovine sclera-choroid-RPE” value is listed as “approximately 0.1%”. The “Cumulative percent transport across bovine cornea” value in data set [4] (setting [13]) was found to be 0.017%. The Solaq result in data set [2] (Table 2) is listed as “Celecoxib (0.005) mg/ml”. Also, in [6] (setting [13]), the “Transport across bovine conjunctiva” value is given as 3.9%. Besides, the “binding/association constant” value in data set [7] was 1.01×10^6 M^−1 and 1.01 E6 M^−1. For the same compound, in [9], the “level in cornea, celecoxib compared with CSA” value is “higher than CSA”; the “level in iris and CRPE, celecoxib compared with C-SA” value is listed as “higher”; the “level in periocular space, celecoxib compared with CSA” value is “lower than that of CSA”.
Take “Alexa-bevacizumab solution: Alexa Fluor 488 conjugated bevacizumab injected as solution (control)”: in [10], the “Alexa-bevacizumab concentration in the vitreous” value worked out at 2.2 µg/mL.
Regarding `CN(C)C[C@@H]1CCn2cc(c3ccccc32)C2=C(C(=O)NC2=O)c2cn(c3ccccc23)CCO1` [Ruboxistaurin], the Solaq result in data set [2] (Table 4) is “Ruboxistaurin (0.029) mg/ml”.
Consider “Succinic acid mono-budesonide ester [budesonide succinate]”, for which, in data set [11] (setting [14]), the “ex vivo drug level (pro-drug) in CRPE” value is on record as 0.6 μg/g tissue, the “ex vivo drug level (pro-drug) in retina” value is recorded as 0.2 μg/g tissue, the “ex vivo drug level (pro-drug) in sclera” value is 1.9 μg/g tissue and the “ex vivo drug level (pro-drug) in vitreous” value was 0.05 μg/g tissue. Further, in data set [11] (setting [14]), the “ex vivo level of budesonide released from budesonide succinate in CRPE” value is recorded as 7.2 μg/g tissue, the “ex vivo level of budesonide released from budesonide succinate in retina” value is 2.2 μg/g tissue, the “ex vivo level of budesonide released from budesonide succinate in sclera” value is 11.0 μg/g tissue and the “ex vivo level of budesonide released from budesonide succinate in vitreous” value came to 0.5 μg/g tissue. Also, the “budesonide delivery in sclera, choroid-RPE and retina, higher with prodrug compared to plain drug budesonide” value in [11] (rat) is 2-5 folds. Further, the “contribution of active diffusion in BSA transport” value in data set [12] was 0.5%.
